# Test results taken from EP0840781B1, “METHODS AND DEVICES FOR THE REMOVAL OF PSORALENS FROM BLOOD PRODUCTS” (Cerus Corporation, priority 1995, dated 1996).
# Read-outs that look alike come from different tables or passages of the source.
# Test system: Salmonella typhimurium tester strains TA97a, TA98, TA100, TA102, TA1537 and TA1538
# Outline: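 Ames pre-incubation test in S. typhimurium TA97a, TA98, TA1537, TA1538 (frameshift) and TA100, TA102 (base-substitution), with or without 10% Aroclor 1254-induced rat liver S-9. Test solutions at 0–500 µg/mL pre-incubated 20 min at 37 °C, plated in histidine/biotin top agar; revertant colonies counted after 44 h at 37 °C.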
structure (smiles),measurement,setting,value
"Cc1oc2c(C)c3oc(=O)cc(C)c3cc2c1COCCN [Compound 2, 4'-(4-amino-2-oxa)butyl-4,5',8-trimethylpsoralen]","revertant colonies, TA100 +S9",5 µg/plate,-18
same,"revertant colonies, TA100 -S9",5 µg/plate,103
same,"revertant colonies, TA1538 +S9",5 µg/plate,2
same,"revertant colonies, TA1538 -S9",5 µg/plate,-8
same,"revertant colonies, TA98 +S9",10 µg/plate,24
same,"revertant colonies, TA98 -S9",10 µg/plate,28
same,"revertant colonies, TA100 +S9",10 µg/plate,1
same,"revertant colonies, TA100 -S9",10 µg/plate,46
same,"revertant colonies, TA1537 +S9",10 µg/plate,5
same,"revertant colonies, TA1537 -S9",10 µg/plate,36
same,"revertant colonies, TA1538 +S9",10 µg/plate,4
same,"revertant colonies, TA1538 -S9",10 µg/plate,-13
same,"revertant colonies, TA98 +S9",50 µg/plate,35
same,"revertant colonies, TA98 -S9",50 µg/plate,52
same,"revertant colonies, TA100 +S9",50 µg/plate,115
same,"revertant colonies, TA100 -S9",50 µg/plate,182
same,"revertant colonies, TA1537 +S9",50 µg/plate,40
same,"revertant colonies, TA1537 -S9",50 µg/plate,282
same,"revertant colonies, TA98 +S9",100 µg/plate,53
same,"revertant colonies, TA98 -S9",100 µg/plate,39
same,"revertant colonies, TA100 +S9",100 µg/plate,96
same,"revertant colonies, TA100 -S9",100 µg/plate,121
same,"revertant colonies, TA1537 +S9",100 µg/plate,88
same,"revertant colonies, TA1537 -S9",100 µg/plate,258
same,"revertant colonies, TA98 +S9",250 µg/plate,69
same,"revertant colonies, TA98 -S9",250 µg/plate,29
same,"revertant colonies, TA1537 +S9",250 µg/plate,744
same,"revertant colonies, TA1537 -S9",250 µg/plate,176
same,"revertant colonies, TA98 +S9",500 µg/plate,63
same,"revertant colonies, TA98 -S9",500 µg/plate,6
same,"revertant colonies, TA1537 +S9",500 µg/plate,395
same,"revertant colonies, TA1537 -S9",500 µg/plate,114
same,"frameshift mutagenicity (Ames, summary)",two-fold or greater increase in revertants above background and dose dependent response,weak frameshift mutagenicity in the presence of S9 in TA98 and TA1537
